Assay results as given in ChEMBL document CHEMBL1128355, “Benzophenone derivatives: a novel series of potent and selective inhibitors of human immunodeficiency virus type 1 reverse transcriptase” (J Med Chem, 1995).
Values after ≈ are worked out from the molar mass of the structure shown.

Key:
[1] = test system: C8166; assay: Inhibitory activity against P24 antigen formation in infected C8166 cells; type: functional, cell-based; conditions: Homo sapiens
[2] = test system: C8166; assay: Inhibitory activity against syncytia formation in infected C8166 cells; type: functional, cell-based; conditions: Homo sapiens
[3] = target: Human immunodeficiency virus type 1 reverse transcriptase (Human immunodeficiency virus 1, UniProt Q72547); assay: Inhibitory activity against HIV-1 reverse transcriptase
[4] = Half life period in mouse serum; type: ADME, organism-based
[5] = test system: Human immunodeficiency virus 1; assay: Antiviral activity against HIV-1 (strain RF) infected MT-4 cells; type: functional, organism-based; conditions: Human immunodeficiency virus 1, MT4
[6] = Toxicity against uninfected MT-4 cells; type: cell-based, MT4; conditions: human
[7] = Half life period in mouse S9 liver preparation; type: ADME; conditions: liver S9 fraction
[8] = test system: MT4; assay: Cytotoxicity against uninfected MT-4 cells; type: functional, cell-based, Homo sapiens
[9] = test system: MT4; assay: Antiviral activity against HIV-1 resistant to 2-(2-Benzoyl-4-chloro-phenyl)-N-[4-(3-dimethylamino-propoxy)-2-methyl-phenyl]-acetamide in MT-4 cells; type: functional, cell-based; conditions: Homo sapiens
[10] = Homo sapiens, MT4, read-out: IC50

Row | SMILES | IC50 [1] [µg/mL] | IC50 [2] [µg/mL] | IC50 [3] [µM] | half-life [4] [h] | IC50 [5] [µg/mL] | half-life [7] [h] | IC50 [6] [µg/mL] | IC50 [8, 10] [µg/mL] | IC50 [9] [µg/mL] | IC50 ([8]; mt4) [µg/mL]
1 | O=C(COc1ccc(-n2ccnc2)cc1C(=O)c1ccccc1)Nc1ccccc1 | – | – | > 25.2 | – | > 10 | – | 10 (≈ 25.2 µM) | – | – | –
2 | CCN(CC)CCOc1ccc(NC(=O)COc2ccccc2C(=O)c2ccc(F)cc2)cc1 | < 0.05 | 0.016 (≈ 0.0344 µM) | 21.5 | – | 0.75 (≈ 1.61 µM) | – | > 0.5 | – | – | –
3 | O=C(COc1ccc(Cl)cc1C(O)c1ccccc1)Nc1ccccc1 (configuration not stated) | – | – | > 272 | – | – | – | – | – | – | –
4 | O=C(COc1ccc(Cl)cc1C(=O)c1ccccc1)NC1CCCCC1 | – | – | 39 | – | – | – | – | – | – | –
5 | c1nc2cnncc2[nH]1 | – | – | – | – | 0.004 (≈ 0.0333 µM) | – | – | > 1 | 0.5 (≈ 4.16 µM) | –
6 | CCN(CC)CCOc1ccc(NC(=O)COc2ccccc2C(=O)c2ccc(OC)cc2)cc1 | 0.18 (≈ 0.378 µM) | 0.34 (≈ 0.713 µM) | 14.3 | – | 0.44 (≈ 0.923 µM) | – | 5 (≈ 10.5 µM) | – | – | –
7 | O=C(COc1ccc(Cl)cc1C(=O)c1ccccc1)Cc1ccccc1 | – | – | 32.9 | – | > 100 | – | > 100 | – | – | –
8 | Cc1cc(OCCCN(C)C)cc(C)c1NC(=O)Cc1ccc(Cl)cc1C(=O)c1ccccc1 | – | – | > 104 | – | – | – | – | – | – | –
9 | O=C(COc1ccc(Cl)c(Cl)c1C(=O)c1ccccc1)Nc1ccccc1 | – | – | > 250 | – | – | – | – | – | – | –
10 | O=C(COc1c(Cl)cc(Cl)cc1C(=O)c1ccccc1)Nc1ccccc1 | – | – | > 250 | – | – | – | – | – | – | –
11 | Cc1cc(OCCCN(C)C)ccc1NC(=O)c1ccc(Cl)cc1C(=O)c1ccccc1 | – | – | > 222 | – | – | – | – | – | – | –
12 | Cc1ccccc1CNC(=O)COc1ccc(Cl)cc1C(=O)c1ccccc1 | 0.032 (≈ 0.0812 µM) | 0.05 (≈ 0.127 µM) | 6.35 | 2.8 | 0.028 (≈ 0.0711 µM) | > 6 | 10 (≈ 25.4 µM) | – | – | –
13 | O=C(c1ccccc1)c1cc(Cl)ccc1OCCNc1ccccc1 | – | – | > 284 | – | – | – | – | – | – | –
14 | CCc1cc(OCCCN(C)C)ccc1NC(=O)Cc1ccc(Cl)cc1C(=O)c1ccccc1 | – | – | 5.22 | – | 0.21 (≈ 0.438 µM) | – | 10 (≈ 20.9 µM) | – | – | –
15 | O=C(c1ccccc1)c1cc(Cl)ccc1OC/C=C/c1ccccc1 | – | – | > 287 | – | – | – | – | – | – | –
16 | CCN(CC)CCOc1ccc(NC(=O)COc2cc(OC)ccc2C(=O)c2ccccc2)cc1 | 0.013 (≈ 0.0273 µM) | 0.05 (≈ 0.105 µM) | 13.2 | – | < 0.01 | – | 5 (≈ 10.5 µM) | – | – | –
17 | CCc1cc(NCc2nc3c(Cl)ccc(Cl)c3o2)c(O)nc1C [L-697661] | – | – | – | – | 0.0017 (≈ 0.00483 µM) | – | – | 100 (≈ 284 µM) | 0.0023 (≈ 0.00653 µM) | 100 (≈ 284 µM)
18 | Nc1ccn([C@@H]2CS[C@H](CO)O2)c(=O)n1 [LAMIVUDINE] | – | – | – | – | 0.043 (≈ 0.188 µM) | – | – | > 100 | 0.048 (≈ 0.209 µM) | –
19 | Cc1ccnc2c1NC(=O)c1cccnc1N2C1CC1 [NEVIRAPINE] | – | – | – | – | 0.01 (≈ 0.0376 µM) | – | – | > 10 | 0.22 (≈ 0.826 µM) | –
20 | CC(C)(C)NC(=O)[C@@H]1C[C@@H]2CCCC[C@@H]2CN1C[C@@H](O)[C@H](Cc1ccccc1)NC(=O)[C@H](CC(N)=O)NC(=O)c1ccc2ccccc2n1 [SAQUINAVIR] | – | – | – | – | 0.028 (≈ 0.0417 µM) | – | – | > 1 | 0.0038 (≈ 0.00566 µM) | –

The remaining molecules from weak to strong by IC50 [3], led by results:

Row | IC50 [1] [µg/mL] | IC50 [2] [µg/mL] | IC50 [3] [µM] | half-life [4] [h] | IC50 [5] [µg/mL] | half-life [7] [h] | SMILES | IC50 [6] [µg/mL] | IC50 [8, 10] [µg/mL] | IC50 [9] [µg/mL] | IC50 ([8]; mt4) [µg/mL]
21 | 0.0015 (≈ 0.00336 µM) | 0.005 (≈ 0.0112 µM) | 5.15 | – | < 0.001 | – | CCN(CC)CCOc1ccc(NC(=O)COc2ccccc2C(=O)c2ccccc2)cc1 | > 0.5 | – | – | –
22 | – | – | 5.03 | – | 0.22 (≈ 0.615 µM) | – | O=C(COc1ccc(Cl)cc1C(=O)C1CCCC1)Nc1ccccc1 | > 100 | – | – | –
23 | 0.032 (≈ 0.0882 µM) | 0.052 (≈ 0.143 µM) | 1.41 | > 6 | 0.31 (≈ 0.854 µM) | > 6 | O=C(c1ccccc1)c1cc(Cl)ccc1OCc1nc2ccccc2[nH]1 | > 0.5 | – | – | –
24 | – | – | 0.936 | – | > 10 | – | CCN(CC)CCOc1ccc(NC(=O)COc2ccc(Cl)cc2C(=O)c2ccccc2)cc1 | 10 (≈ 20.8 µM) | – | – | –
25 | 0.0029 (≈ 0.00624 µM) | 0.016 (≈ 0.0344 µM) | 0.753 | 4.75 | 0.0044 (≈ 0.00946 µM) | 1.8 | Cc1cc(OCCCN(C)C)ccc1NC(=O)Cc1ccc(Cl)cc1C(=O)c1ccccc1 | > 0.5 | – | – | –
26 | – | – | 0.443 | – | 0.21 (≈ 0.466 µM) | – | CN(C)CCCOc1ccc(NC(=O)Cc2ccc(Cl)cc2C(=O)c2ccccc2)cc1 | 10 (≈ 22.2 µM) | – | – | –
27 | – | – | 0.436 | – | < 0.01 | – | O=C(COc1ccc(Cl)cc1C(=O)c1cccnc1)Nc1ccccc1 | 10 (≈ 27.3 µM) | – | – | –
28 | < 0.0005 | 0.0009 (≈ 0.00193 µM) | 0.208 | < 0.25 | < 0.01 | > 2 | CN(C)CCCOc1ccc(NC(=O)COc2ccc(Cl)cc2C(=O)c2ccccc2)cc1 | > 0.5 | – | – | –
29 | > 5 | > 50 | 0.162 | < 0.25 | 0.7 (≈ 1.8 µM) | 3.5 | O=C(COc1ccc(Cl)cc1C(=O)c1ccccc1)c1cc2ccccc2[nH]1 | 10 (≈ 25.7 µM) | – | – | –
30 | – | – | 0.035 | – | 0.023 (≈ 0.0575 µM) | – | O=C(COc1cc(Cl)c(Cl)cc1C(=O)c1ccccc1)Nc1ccccc1 | 100 (≈ 250 µM) | – | – | –
31 | 0.0012 (≈ 0.00328 µM) | 0.0002 (≈ 0.000547 µM) | 0.0273 | < 0.25 | 0.0004 (≈ 0.00109 µM) | < 0.25 | O=C(COc1ccc(Cl)cc1C(=O)c1ccccc1)Nc1ccccc1 | > 0.005 | – | – | –
32 | 0.016 (≈ 0.0394 µM) | 0.011 (≈ 0.0271 µM) | 0.0148 | 1.2 | 0.014 (≈ 0.0345 µM) | 2.8 | O=C(c1ccccc1)c1cc(Cl)ccc1OCC(=O)N1CCc2ccccc2C1 | > 0.5 | – | – | –
33 | 0.006 (≈ 0.0172 µM) | 0.014 (≈ 0.0401 µM) | 0.00859 | – | 0.09 (≈ 0.258 µM) | – | O=C(COc1ccc(F)cc1C(=O)c1ccccc1)Nc1ccccc1 | 10 (≈ 28.6 µM) | – | – | –
